In US20050169908A1, “Use of aerosolized antithrombin to treat acute lung injury” (priority 2004, published 2005):

Legend:
[1] = test system: smoke inhalation injury followed by pneumonia; assay: Pulmonary gas exchange (PaO2/FiO2 ratio, pulmonary shunt fraction) after smoke inhalation and pneumonia in sheep; format: in vivo; settings: nebulized every 4 hrs, 24-h study; vs saline-treated group (FIG. 1B)
Protocol: Recombinantly produced ATIII was dissolved in saline (42 mg/ml). Female sheep (n=24) were used. After the 48 breaths of cotton smoke (<40° C.), P. aeruginosa (5×10^11 CFU) was instilled in the both lungs. All the animals were mechanically ventilated by 100% O2 (Tidal volume 15 ml/kg, 30 breaths/min, PEEP 5 cmH2O). […] No animals died during the study.
(§1) The Animal Care and Use Committee of The University of Texas Medical Branch approved the experiments reported in this manuscript. All animals were handled within the guidelines established by the American Physiological Society and the National Institutes of Health. Twenty four female sheep were surgically prepared for study under halothane anesthesia as previously described (9). After measurement of baseline cardiovascular data, sheep received a combination injury of smoke inhalation and bacteria instillation as previously described (3).
Briefly, P. aeruginosa (5×10^9/kg) was instilled intrabronchially after the cotton smoke exposure (4 sets of 12 breaths, <40° C.). […]
(§2) The statistical software StatView 5.0 (SAS Institute, Cary, N.C.) was used to perform the analysis. Data are expressed as means±SEM. Repeated measured analysis of variance (ANOVA) or ANOVA with Tuckey's post hoc test was used to compare data among the groups. […]

[2] = test system: smoke inhalation injury followed by pneumonia; assay: Microscopic evaluation of airway obstruction by cast formation; format: in vivo, sheep
Text: as §1
(§3) Briefly, P. aeruginosa (5×10^9/kg) was instilled intrabronchially after the cotton smoke exposure (4 sets of 12 breaths, <40° C.). After the smoke inhalation and bacterial instillation, animals were randomly assigned for the two treatment groups, ATIII nebulization group (n=6), argatroban-nebulization group (n=8), and saline nebulization control group (n=10). All animals were mechanically ventilated with 100% oxygen throughout the 24-h study (Tidal volume 12-15 ml/kg, 30 breaths/min, PEEP 7.5 cmH2O). Tidal volume was adjusted to maintain PaCO2 normal. The Ringer's lactate solution was injected in sufficient volume to prevent the hematocrit from rising. Initially, 2 ml/kg/h of Ringer's lactate was infused, and we adjusted the in rate up to 10 ml/kg/h based on the hematocrit levels.
Recombinant human antithrombin (rhAT) was dissolved in distilled water (250 mg/30 mL). Then, the ATIII solution was mixed with 60 mL saline and 15 mL of the mixed solution containing 41.7 mg ATIII was nebulized every 4 hrs. […] The control group received 15 ml saline nebulization as the same fashion. The solutions were nebulized by an ultrasonic nebulizer (Ultra-Neb99, DeVilbiss Co., Somerset, Pa.), which was connected to the tracheobronchial tree as shown previously (10). The size of the particles obtained by the nebulizer is reported less than 4 microns. […]
(§4) A lung slice from the right lower lobe was histologically scored by a pathologist who was unaware of animal grouping (5). […] Airway obstruction by cast formation was also evaluated as previously described (3).

[3] = Blood counts (WBC, platelets) after injury; format: in vivo, sheep
Text: as §1, §3
Recombinant human antithrombin (rhAT) was dissolved in distilled water (250 mg/30 mL). Then, the ATIII solution was mixed with 60 mL saline and 15 mL of the mixed solution containing 41.7 mg ATIII was nebulized every 4 hrs. […] The control group received 15 ml saline nebulization as the same fashion. The solutions were nebulized by an ultrasonic nebulizer (Ultra-Neb99, DeVilbiss Co., Somerset, Pa.), which was connected to the tracheobronchial tree as shown previously (10). The size of the particles obtained by the nebulizer is reported less than 4 microns. The nebulization was started one hour after the insult and every 4 hrs thereafter.
Arterial blood was cultured to test the bacteremia (Septi-check, Becton Dickinson, Sparks, Md.). Heparinized blood samples were carefully withdrawn from the femoral artery catheter at baseline and at 3, 6, 12, and 24 hrs.

[4] = test system: smoke inhalation injury followed by pneumonia; assay: Plasma nitrate/nitrite (NOx) levels; format: in vivo, sheep; settings: over 24 h; vs saline-treated group (FIG. 6)
Text: as §1
as §3, with “Initially, 2 ml/kg/h of Ringer's lactate was infused, and we adjusted the in rate up to 10 ml/kg/h based on the hematocrit levels.” left out
The concentration of NOx (total amount of nitric oxide metabolites) in plasma was measured with a chemiluminescent NO analyser (Antek, model 7020) as previously described (11).

P. aeruginosa = assay: Arterial blood culture for bacteremia; format: in vivo, sheep; settings: during the 24 h study; no statistical difference from saline-treated group
Text: as §1
as §3, with “levels. […]” for “levels.”

[5] = test system: smoke inhalation injury followed by pneumonia; assay: Lung histopathology scores 24 h after smoke and bacterial challenge; format: in vivo, sheep; settings: vs saline control
Text: as §1, §3
Recombinant human antithrombin (rhAT) was dissolved in distilled water (250 mg/30 mL). Then, the ATIII solution was mixed with 60 mL saline and 15 mL of the mixed solution containing 41.7 mg ATIII was nebulized every 4 hrs. […] The control group received 15 ml saline nebulization as the same fashion. […]
as §4, §2

[6] = 24 h, vs saline treated group (FIG. 4)

In the case of `CC1CNc2c(cccc2S(=O)(=O)N[C@@H](CCCNC(=N)N)C(=O)N2CC[C@@H](C)C[C@@H]2C(=O)O)C1` (stereo partly shown) [Argatroban], the “increase in pulmonary shunt fraction after the insult” value [1] is reported as “significantly less”, the “airway obstruction in bronchi levels” value [2, 6] is reported as “inhibited the obstruction significantly” and the “airway obstruction in bronchiole levels” value [2, 6] is reported as “inhibited the obstruction significantly”. For the same compound, the “prevention of cast formation (airway obstruction), comparison of the two agents” value ([2]; argatroban vs rhAT) was “more effective in preventing cast formation than rhAT”, the Platelets ([3]; 24 hrs after injury, Mean ± SE) was 297 ± 78 ×10^3/μL and the WBC ([3]; 24 hrs after injury, Mean ± SE) was 2.08 ± 0.81 ×10^3/μl. For the same compound, the “decrease in leukocyte number 24 h after the injury” value ([3]; in words, Table 1) was “did not affect”, the “decrease in platelet count after the injury” value ([3]; in words, Table 1) was “slightly prevented” and the “increase in plasma NOx levels” value [4] was “not a statistical difference”. The “animals with P. aeruginosa detected in arterial blood culture” value (P. aeruginosa) was 0%, the hemorrhage score [5] was “not higher but less” and the “individual histology scores in congestion, edema, inflammation, and hemorrhage (scale 0-4)” value [5] was “almost the same scores as saline control”. For the same compound, the “total histology score (maximum 16)” value [5] was “did not attenuate”.
